Measurements reported in ChEMBL document CHEMBL5579896, “Discovery of 2-Aryl-4-aminoquinazolin-Based LSD1 Inhibitors to Activate Immune Response in Gastric Cancer” (J Med Chem, 2024).
The source made the active and inactive calls. The rule behind the calls is not given here.

Experiments:
BGC-823 [1] = test: Anticancer activity against human BGC-823 cells cocultured with human monocytes assessed as increase in CD3/CD28 activated T-cell killing response incubated for 5 days by microscopic analysis; type: functional, cell-based; conditions: dose 2-8 µM, time 5.0 day
BGC-823 [2] = test: Anticancer activity against LSD-1 knockout human BGC-823 cells cocultured with human monocytes assessed as increase in CD3/CD28 activated T-cell killing response at 2 to 8 uM incubated for 5 days by microscopic analysis; type: functional, cell-based; conditions: dose 2-8 µM, time 5.0 day
MFC [3] = test: Antitumor activity against MFC cells implanted in mouse assessed as reduction in tumor growth at 10 to 40 mg/kg/day, po administered daily for 2 weeks and measured every 2 days; type: functional, organism-based; conditions: dose 10-40 mg/kg/day
MFC [4] = test: Antitumor activity against MFC cells implanted in mouse assessed as reduction in tumor size at 10 to 40 mg/kg/day, po administered daily for 2 weeks and measured every 2 days; type: functional, organism-based; conditions: dose 10-40 mg/kg/day
MFC [5] = test: Antitumor activity against MFC cells implanted in mouse assessed as reduction in tumor weight at 10 to 40 mg/kg/day, po administered daily for 2 weeks and measured every 2 days; type: functional, organism-based; conditions: dose 10-40 mg/kg/day
[6] = Toxicity in mouse implanted with MFC assessed as reduction in body weight at 10 to 40 mg/kg/day, po administered daily for 2 weeks and measured every 2 days; type: organism-based; conditions: in vivo, 336 h, dose 10-40 mg/kg/day
[7] = Toxicity in mouse implanted with MFC assessed as heart damage at 10 to 40 mg/kg/day, po administered daily for 2 weeks and measured every 2 days by H and E staining based assay; type: organism-based; conditions: in vivo, 336 h, dose 10-40 mg/kg/day
[8] = Toxicity in mouse implanted with MFC assessed as liver damage at 10 to 40 mg/kg/day, po administered daily for 2 weeks and measured every 2 days by H and E staining based assay; type: organism-based; conditions: in vivo, 336 h, dose 10-40 mg/kg/day
[9] = Toxicity in mouse implanted with MFC assessed as spleen damage at 10 to 40 mg/kg/day, po administered daily for 2 weeks and measured every 2 days by H and E staining based assay; type: organism-based; conditions: in vivo, 336 h, dose 10-40 mg/kg/day
[10] = Toxicity in mouse implanted with MFC assessed as lung damage at 10 to 40 mg/kg/day, po administered daily for 2 weeks and measured every 2 days by H and E staining based assay; type: organism-based; conditions: in vivo, 336 h, dose 10-40 mg/kg/day
[11] = Toxicity in mouse implanted with MFC assessed as kidney damage at 10 to 40 mg/kg/day, po administered daily for 2 weeks and measured every 2 days by H and E staining based assay; type: organism-based; conditions: in vivo, 336 h, dose 10-40 mg/kg/day
MFC [12] = test: Antitumor activity against MFC cells implanted in mouse assessed as reduction in Ki67 expression at 10 to 40 mg/kg/day, po administered daily for 2 weeks and measured every 2 days; type: functional, organism-based; conditions: dose 10-40 mg/kg/day
MFC [13] = test: Downregulation of PD-L1 expression in MFC cells implanted in mouse at 10 to 40 mg/kg/day, po administered daily for 2 weeks and measured every 2 days by Western blotting analysis; type: functional, organism-based; conditions: dose 10-40 mg/kg/day
MFC [14] = test: Antitumor activity against MFC cells implanted in mouse assessed as increase in infiltration of CD4+ cells at 10 to 40 mg/kg/day, po administered daily for 2 weeks and measured every 2 days by immunohistochemistry assay; type: functional, organism-based; conditions: dose 10-40 mg/kg/day
MFC [15] = test: Antitumor activity against MFC cells implanted in mouse assessed as increase in infiltration of CD8+ cells at 10 to 40 mg/kg/day, po administered daily for 2 weeks and measured every 2 days by immunohistochemistry assay; type: functional, organism-based; conditions: dose 10-40 mg/kg/day
[16] = Drug uptake in ICR mouse plasma at 40 mg/kg, po; type: ADME, organism-based; conditions: in vivo
[17] = Half-life in ICR mouse at 40 mg/kg, po measured upto 24 hrs by LC-MS/MS analysis; type: ADME, organism-based; conditions: in vivo
[18] = Cmax in ICR mouse at 40 mg/kg, po measured upto 24 hrs by LC-MS/MS analysis; type: ADME, organism-based; conditions: in vivo
[19] = AUC in ICR mouse at 40 mg/kg, po measured upto 24 hrs by LC-MS/MS analysis; type: ADME, organism-based; conditions: in vivo

Drug uptake [16]: Active
half-life [17]: 1.22 h
Cmax [18]: 613 ng/mL
AUC at 24 h [19]: 2250 ng·h/mL
Compound: CCN(CC)c1ccc(Nc2nc(-c3ccc(S(C)(=O)=O)cc3)nc3ccccc23)cc1
Activity (BGC-823 [1]): Dose-Dependent Effect
Activity (BGC-823 [2]): inactive
Activity (MFC [3]): Active
Activity (MFC [4]): Active
Activity (MFC [5]): Active
Activity [6]: Non-Toxic
Activity [7]: Non-Toxic
Activity [8]: Non-Toxic
Activity [9]: Non-Toxic
Activity [10]: Non-Toxic
Activity [11]: Non-Toxic
Activity (MFC [12]): Active
Activity (MFC [13]): Active
Activity (MFC [14]): Active
Activity (MFC [15]): Active
